Measurements as given in ChEMBL document CHEMBL1129228, “Naphtho-fused azepines as potent growth hormone secretagogues” (Bioorg Med Chem Lett, 1997).
Square brackets hold non-standard residues; d marks the D form. Peptide text beside a SMILES is read from it. ξ: configuration not given here. 1Nal = N[C@@H](Cc1cccc2ccccc12)C(=O)O; ξ1Nal = NC(Cc1cccc2ccccc12)C(=O)O; 3Amb = NCc1cccc(C(=O)O)c1

Key:
Rattus norvegicus = organism: Rattus norvegicus; test: Compound was evaluated for its potency using rat pituitary cell assay; assay type: functional; details: Pituitary gland cell, read-out: ED50 (the source's name)
[1] = Oral bioavailability determined in rats; assay type: ADME, organism-based; details: rat, in vivo

EC50 (Rattus norvegicus) [nM] | bioavailability [1] [%] | SMILES
1700 | – | CC(C)(N)CC(=O)N[C@@H]1CCc2ccccc2N(Cc2ccc(-c3ccccc3)cc2)C1=O
62 | – | Cc1nnc(-c2cscc2-c2ccc(CN3C(=O)[C@H](NC(=O)CC(C)(C)N)CCc4ccccc43)cc2)o1
125 | – | CC(C)(N)CC(=O)N[C@@H]1CCc2ccccc2N(Cc2ccc(-c3ccccc3-c3nn[nH]n3)cc2)C1=O
2 | – | C[C@H](N)C(=O)N[C@@H](Cc1ccccc1)C(=O)N[C@@H](Cc1cccc2ccccc12)C(=O)N[C@@H](Cc1ccccc1)C(=O)N[C@@H](CCCCN)C(N)=O (H-AF[1Nal]FK-NH2)
175 | – | NC1(C(=O)N[C@@H]2CCc3c(ccc4ccccc34)N(Cc3ccc(-c4ccccc4-c4nn[nH]n4)cc3)C2=O)CC1
7 | – | NCCCC[C@H](NC(=O)[C@H](Cc1ccccc1)NC(=O)C(Cc1cccc2ccccc12)NC(=O)c1cccc(CN)c1)C(N)=O (some centres not stated) (H-[3Amb][ξ1Nal]FK-NH2)
4 | < 5 | CC(C)(N)CC(=O)N[C@@H]1CCc2c(ccc3ccccc23)N(Cc2ccc(-c3ccccc3-c3nn[nH]n3)cc2)C1=O
1000 | – | CC(C)(N)CC(=O)N[C@@H]1CCc2ccccc2N(Cc2ccccc2)C1=O
37 | – | Cc1nnc(-c2cscc2-c2ccc(CN3C(=O)[C@H](NC(=O)CC(C)(C)N)CCc4c3ccc3ccccc43)cc2)o1
8500 | – | CC(C)(N)CC(=O)N[C@@H]1CCc2c(ccc3ccccc23)N(Cc2ccccc2)C1=O
30 | – | CC(C)(N)C(=O)N[C@@H]1CCc2ccccc2N(Cc2ccc(-c3ccccc3-c3nn[nH]n3)cc2)C1=O
